Consider 21 molecules from patent US9249085B2, “Aniline derivatives, their preparation and their therapeutic application” (FOVEA PHARMACEUTICALS, priority 2011, dated 2016).

The target of assay [1] is recombinant human prostanoid EP4 receptor (Homo sapiens (Human), UniProt P35408). Nature of the assay: Human prostanoid EP4 receptor binding assay ([3H]PGE2 displacement). Particulars: HEK-293(T) membranes, 0.5 nM [3H]PGE2, 120 min at 22° C.; NC: not calculable; read-out: In vitro potency EP4 (h) IC50. As for the experimental part: Test 1.1: Human Prostanoid EP4 Receptor Binding Assay
Sequence of recombinant human prostanoid EP4 receptor (P35408 whole entry): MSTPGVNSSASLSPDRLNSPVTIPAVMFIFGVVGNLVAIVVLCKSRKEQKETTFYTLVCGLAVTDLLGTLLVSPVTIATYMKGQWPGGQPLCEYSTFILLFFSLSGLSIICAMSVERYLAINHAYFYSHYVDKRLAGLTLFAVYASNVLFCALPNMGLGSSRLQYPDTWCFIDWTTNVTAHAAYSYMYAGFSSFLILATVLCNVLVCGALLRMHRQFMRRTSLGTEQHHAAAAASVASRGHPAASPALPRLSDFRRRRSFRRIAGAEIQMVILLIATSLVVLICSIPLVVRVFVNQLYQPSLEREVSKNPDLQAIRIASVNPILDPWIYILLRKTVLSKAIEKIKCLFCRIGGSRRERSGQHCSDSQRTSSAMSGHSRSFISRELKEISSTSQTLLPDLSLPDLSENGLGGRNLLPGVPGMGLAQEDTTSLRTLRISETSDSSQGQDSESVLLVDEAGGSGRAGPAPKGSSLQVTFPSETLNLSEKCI
Cell membrane homogenate from Human embryonic kidney HEK-293(T) cells expressing recombinant human prostanoid EP4 receptor was used to perform Prostanoid receptor radioligand binding assays.
The competition reaction was initiated by incubation of membrane protein homogenate (20 μg protein) for 120 min at 22° C. with 0.5 nM [^3H]PGE2 ligand in the absence or presence of the test compound in a buffer containing 10 mM MES/KOH (pH 6.0), 10 mM MgCl2 and 1 mM EDTA.
Non-specific binding was determined in the presence of 10 μM PGE2 (the corresponding non-radioactive prostanoid). Affinity of the compound binding to hEP4 receptor was measured by displacement of the radiolabeled ligand in the presence of varying doses of tested compound.
Incubations were terminated by rapid filtration under vacuum through glass fiber filters (GF/B, Packard) presoaked with 0.3% PEI and washed several times with ice-cold 50 mM Tris-HCl using a 96-sample cell harvester (Unifilter, Packard).
The filters were dried and the residual radioactivity bound to the individual filters determined with addition of scintillation cocktail (Microscint 0, Packard) by a scintillation counter (Topcount, Packard).
The results were expressed as a percent inhibition of the control radioligand specific binding.
The standard reference compound PGE2, was tested in at several concentrations to obtain a competition curve to determined IC50.
(§1) Analysis and Expression of Results
The specific ligand binding to the receptors is defined as the difference between the total binding and the nonspecific binding determined in the presence of an excess of unlabelled ligand. The results are expressed as a percent of control specific binding ((measured specific binding/control specific binding)×100) obtained in the presence of the test compounds. The IC50 values (concentration causing a half-maximal inhibition of control specific binding) and Hill coefficients (nH) were determined by non-linear regression analysis of the competition curves generated with mean replicate values using Hill equation curve fitting (Y=D+[(A−D)/(1+(C/C50)nH)], where Y=specific binding, D=minimum specific binding, A=maximum specific binding, C=compound concentration, C50=IC50, and nH=slope factor). This analysis was performed using a software developed at Cerep (Hill software) and validated by comparison with data generated by the commercial software SigmaPlot® 4.0 for Windows® (© 1997 by SPSS Inc.). The inhibition constants (Ki) were calculated using the Cheng Prusoff equation (Ki=IC50/(1+(L/KD)), where L=concentration of radioligand in the assay, and KD=affinity of the radioligand for the receptor). A scatchard plot is used to determine the Kd.

The target in assay [2] is recombinant human prostanoid EP2 receptor (Homo sapiens (Human), UniProt P43116). Kind of assay: Human prostanoid EP2 receptor cellular functional assay (cAMP, HTRF). The class given is cell-based. Particulars: for EC50: CHO cells expressing recombinant human EP2, cAMP by HTRF, 30 min, 37° C., read-out: In vitro functional assay EP2 (h) EC50; for In vitro functional assay EP2 (h) % response: percent of control specific agonist response (10 μM PGE2). As for the experimental part:
Test 1.2: Human Prostanoid EP2 Receptor Cellular Functional Assay
Human CHO cells expressing the recombinant human prostanoid EP2 receptor were suspended in assay medium (HBSS buffer (Invitrogen) containing 20 mM HEPES (pH7.4) and 500 μM isobutyl-methylxanthine IBMX) and plated out to yield approximately 1×10^4 cells/well in a 96-well. Following this, cells were incubated with agonists for 30 min in the presence of the test compounds. For stimulated control measurements, separate assay wells contain 10 μM PGE2 (control specific agonist). All incubations were carried out at 37° C. in a 5% CO2 atmosphere. Following incubation, the amount of cAMP in each well was determined by HTRF method. The cells are lysed and the fluorescence acceptor (D2-labeled cAMP) and fluorescence donor (anti-cAMP antibody labeled with europium cryptate) are added. After 60 min at room temperature, the fluorescence transfer is measured at λ ex=337 nm and λ em=620 and 665 nm using a microplate reader (Rubystar, BMG).
The cAMP concentration is determined by dividing the signal measured at 665 nm by that measured at 620 nm (ratio).
The standard reference agonist PGE2 was tested at several concentrations to generate a concentration-response curve to determined EC50.
as §1
The results are expressed as a percent of control specific agonist response ((measured specific response/control specific agonist response)×100) obtained in the presence of the test compounds. The EC50 values (concentration producing a half-maximal specific response) were determined by non-linear regression analysis of the concentration-response curves generated with mean replicate values using Hill equation curve fitting (Y=D+[(A−D)/(1+(C/C50)nH)], where Y=specific response, D=minimum specific response, A=maximum specific response, C=compound concentration, and C50=EC50 and nH=slope factor). This analysis was performed using a software developed at Cerep (Hill software) and validated by comparison with data generated by the commercial software SigmaPlot® 4.0 for Windows® (© 1997 by SPSS Inc.).
A general note: Time-resolved FRET reads energy transfer from a long-lived donor to a nearby acceptor.

Sequence of recombinant human prostanoid EP2 receptor (P43116 whole entry): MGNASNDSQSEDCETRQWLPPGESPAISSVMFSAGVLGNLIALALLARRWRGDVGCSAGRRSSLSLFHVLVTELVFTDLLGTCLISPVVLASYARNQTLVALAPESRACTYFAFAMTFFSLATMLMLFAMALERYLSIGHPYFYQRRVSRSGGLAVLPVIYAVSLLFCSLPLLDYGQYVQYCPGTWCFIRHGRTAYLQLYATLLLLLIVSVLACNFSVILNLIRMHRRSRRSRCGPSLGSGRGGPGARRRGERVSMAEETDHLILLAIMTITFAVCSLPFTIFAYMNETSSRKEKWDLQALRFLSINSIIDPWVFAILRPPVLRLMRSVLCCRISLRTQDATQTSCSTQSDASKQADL

Usually IC50 stands for the midpoint of a concentration-inhibition curve. What is called EC50 is the concentration that produces a half-maximal response. As for `Cc1cc(-c2cccc(F)c2)cc(CNc2c(F)ccc(OCC(=O)O)c2C)c1F` [I(ad), 2-[4-fluoro-3-[[2-fluoro-5-(3-fluorophenyl)-3-methyl-phenyl]methylamino]-2-methyl-phenoxy]acetic acid], in assay [1], the 50% inhibitory concentration (IC50) was over 300 nM. In addition, in assay [2], the EC50 was determined as 2 nM and the “In vitro functional assay EP2 (h) % response” value was found to be 101%.

In the case of `O=C(O)COc1ccc(Cl)c(NCc2cc(-c3cccc(F)c3)ccc2F)c1F` [I(k), 2-[4-Chloro-2-fluoro-3-[[2-fluoro-5-(3-fluorophenyl)phenyl]methylamino]phenoxy]acetic acid], the half-inhibitory concentration (IC50) in assay [1] was over 300 nM. Further, in assay [2], the EC50 was found to be 73 nM and the “In vitro functional assay EP2 (h) % response” value was determined as 77%.

Consider `O=C(O)COc1ccc(Cl)c(NCc2cc(-c3cccc(F)c3)ccc2F)c1Cl` [I(r), 2-[2,4-Dichloro-3-[[2-fluoro-5-(3-fluorophenyl)phenyl]methylamino]phenoxy]acetic acid], for which, in assay [1], the IC50 is over 300 nM. In assay [2], the EC50 was 45 nM and the “In vitro functional assay EP2 (h) % response” value came to 78%.

As for `COc1c(C)cc(-c2cccc(F)c2)cc1CNc1c(C)ccc(OCC(=O)O)c1C` [I(al), 2-[3-[[5-(3-fluorophenyl)-2-methoxy-3-methyl-phenyl]methylamino]-2,4-dimethyl-phenoxy]acetic acid], in assay [1], the half-maximal inhibitory concentration (IC50) is over 300 nM. Moreover, in assay [2], the 50% effective concentration (EC50) was 0.9 nM and the “In vitro functional assay EP2 (h) % response” value is 70%.

For `Cc1ccc(OCC(=O)O)c(C)c1NCc1cc(-c2cccc(F)c2)cc(F)c1C` [I(aw), 2-[3-[[3-fluoro-5-(3-fluorophenyl)-2-methyl-phenyl]methylamino]-2,4-dimethyl-phenoxy]acetic acid], in assay [1], the half-inhibitory concentration (IC50) is over 300 nM. Also, in assay [2], the concentration giving a half-maximal response (EC50) came out at 3 nM and the “In vitro functional assay EP2 (h) % response” value is reported as 80%.

In the case of `O=C(O)COc1ccc(F)c(NCc2c(F)ccc(-c3cccc(F)c3)c2F)c1F` [I(s), 2-[3-[[2,6-Difluoro-3-(3-fluorophenyl)phenyl]methylamino]-2,4-difluoro-phenoxy]acetic acid], in assay [2], the EC50 stood at 17 nM and the “In vitro functional assay EP2 (h) % response” value was 72%.

In the case of `O=C(O)COc1ccc(F)c(NCc2cc(O)cc(-c3cccc(F)c3)c2F)c1F` [I(f), 2-[2,4-Difluoro-3-[[2-fluoro-3-(3-fluorophenyl)-5-hydroxy-phenyl]methylamino]phenoxy]acetic acid], in assay [2], the EC50 came out at 160 nM and the “In vitro functional assay EP2 (h) % response” value was 61%.

With `CC(Nc1c(F)ccc(OCC(=O)O)c1F)c1cc(-c2cccc(F)c2)ccc1F` (racemic) [I(as), (R,S)-2-[2,4-difluoro-3-[1-[2-fluoro-5-(3-fluorophenyl)phenyl]ethylamino]phenoxy]acetic acid], in assay [2], the EC50 amounted to 11 nM and the “In vitro functional assay EP2 (h) % response” value worked out at 107%.

Take `Cc1cc(-c2cccc(F)c2)cc(CNc2c(F)ccc(OCC(=O)O)c2C)c1C` [I(at), 2-[4-fluoro-3-[[5-(3-fluorophenyl)-2,3-dimethyl-phenyl]methylamino]-2-methyl-phenoxy]acetic acid]: the IC50 in assay [1] was over 300 nM. In addition, in assay [2], the EC50 was 6 nM and the “In vitro functional assay EP2 (h) % response” value amounted to 91%.

With `COc1c(C)cc(-c2cccc(F)c2)cc1CNc1c(F)ccc(OCC(=O)O)c1F` [I(t), 2-[2,4-Difluoro-3-[[5-(3-fluorophenyl)-2-methoxy-3-methyl-phenyl]methylamino]phenoxy]acetic acid], in assay [2], the EC50 was determined as 17 nM and the “In vitro functional assay EP2 (h) % response” value is on record as 73%.

Take `Cc1cc(-c2cccc(F)c2)cc(CNc2c(F)ccc(OCC(=O)O)c2F)c1O` [I(u), 2-[2,4-Difluoro-3-[[5-(3-fluorophenyl)-2-hydroxy-3-methyl-phenyl]methylamino]phenoxy]acetic acid]: in assay [2], the EC50 stood at 9 nM and the “In vitro functional assay EP2 (h) % response” value was determined as 78%.

Regarding `Cc1cc(-c2cccc(F)c2)cc(CNc2c(F)ccc(OCC(=O)O)c2F)c1C` [I(v), 2-[2,4-Difluoro-3-[[5-(3-fluorophenyl)-2,3-dimethyl-phenyl]methylamino]phenoxy]acetic acid], in assay [2], the concentration giving a half-maximal response (EC50) is 2 nM and the “In vitro functional assay EP2 (h) % response” value is 85%.

For the molecule `Cc1cc(CNc2c(F)ccc(OCC(=O)O)c2F)cc(-c2cccc(F)c2)c1` [I(d), 2-[2,4-Difluoro-3-[[3-(3-fluorophenyl)-5-methyl-phenyl]methylamino]phenoxy]acetic acid], in assay [2], the EC50 was determined as 35 nM and the “In vitro functional assay EP2 (h) % response” value came to 74%.

`O=C(O)COc1ccc(F)c(NCc2cc(O)cc(-c3cccc(F)c3)c2)c1F` [I(p), 2-[2,4-Difluoro-3-[[3-(3-fluorophenyl)-5-hydroxy-phenyl]methylamino]phenoxy]acetic acid]: in assay [2], the EC50 was determined as 17 nM and the “In vitro functional assay EP2 (h) % response” value is listed as 70%.

`O=C(O)COc1cccc(CN(Cc2ccc(-n3cccn3)cc2)S(=O)(=O)c2cccnc2)c1` [CP-544326, reference compound]: in assay [2], the EC50 worked out at 46 nM and the “In vitro functional assay EP2 (h) % response” value was 72%.

On to `COc1c(C)cc(-c2cccc(F)c2)cc1CNc1c(F)ccc(OCC(=O)O)c1C` [I(af), 2-[4-fluoro-3-[[5-(3-fluorophenyl)-2-methoxy-3-methyl-phenyl]methylamino]-2-methyl-phenoxy]acetic acid], for which, in assay [2], the concentration giving a half-maximal response (EC50) worked out at 5 nM and the “In vitro functional assay EP2 (h) % response” value came out at 70%.

As to `Cc1cc(OCC(=O)O)c(C)c(NCc2cc(-c3cccc(F)c3)ccc2F)c1F` [I(ac), 2-[4-fluoro-3-[[2-fluoro-5-(3-fluorophenyl)phenyl]methylamino]-2,5-dimethyl-phenoxy]acetic acid], in assay [2], the half-maximal effective concentration (EC50) came out at 18 nM and the “In vitro functional assay EP2 (h) % response” value worked out at 117%.

In the case of `N#Cc1c(OCC(=O)O)ccc(F)c1NCc1cc(-c2cccc(F)c2)ccc1F` [I(an), 2-[2-cyano-4-fluoro-3-[[2-fluoro-5-(3-fluorophenyl)phenyl]methylamino]phenoxy]acetic acid], in assay [2], the half-maximal effective concentration (EC50) was found to be 9 nM and the “In vitro functional assay EP2 (h) % response” value turned out to be 91%.

For `O=C(O)COc1cccc(NCc2cc(-c3cccc(F)c3)ccc2F)c1` [I(a), 2-[3-[[2-Fluoro-5-(3-fluorophenyl)phenyl]methylamino]phenoxy]acetic acid], in assay [2], the EC50 was determined as 110 nM and the “In vitro functional assay EP2 (h) % response” value amounted to 74%.

For `Cc1ccc(OCC(=O)O)c(F)c1NCc1cc(-c2cccc(F)c2)ccc1F` [I(i), 2-[2-Fluoro-3-[[2-fluoro-5-(3-fluorophenyl)phenyl]methylamino]-4-methyl-phenoxy]acetic acid], in assay [2], the concentration giving a half-maximal response (EC50) is 99 nM and the “In vitro functional assay EP2 (h) % response” value is reported as 73%.

Turning to `Cc1cc(OCC(=O)O)c(F)c(NCc2cc(-c3cccc(F)c3)ccc2F)c1F` [I(ab), 2-[2,4-difluoro-3-[[2-fluoro-5-(3-fluorophenyl)phenyl]methylamino]-5-methyl-phenoxy]acetic acid], in assay [2], the concentration for a half-maximal effect (EC50) worked out at 50 nM and the “In vitro functional assay EP2 (h) % response” value came out at 105%.
